Results as given in patent US10544112B2, “Identification of ebsulfur analogues with broad-spectrum antifungal activity” (priority 2017, dated 2020).

Tested on: C. albicans ATCC 10231 (strain A)
Assay: ROS production assay (DCFH-DA)
Assay type: cell-based, Candida albicans
Conditions: 1× and 2× MIC (H2O2 1 mM), 1-h treatment
Procedure: ROS production assay was performed as previously described with minor modifications. […] Once entering the cells, the DCFH-DA probe is first hydrolyzed to the non-fluorescent 2′,7′-dichlorodihydrofluorescein (DCFH) by cellular esterases. […] A colony of C. albicans ATCC 10231 (strain A) was used to inoculate 5 mL of PDB in a Falcon tube and grown overnight at 35° C. at 200 rpm.
Thus, whether the compounds of the invention would also induce ROS against C. albicans was studied. […] 2′,7′-dichlorodihydrofluorescin diacetate (DCFH-DA) was then used to detect and visualize ROS production (FIG. 5). As a positive control, cells were treated with H2O2, which is an inducer of hydroxyl radical formation.

SMILES: CCCCCn1sc2ccccc2c1=O [Compound 3a]
- ROS induction (DCFH-DA fluorescence): highly fluorescent
